From US20080096861A1, “Chemical Compounds” (SMITHKLINE BEECHAM CORPORATION, priority 2004, published 2008)
Like-named read-outs stand apart in the source and are kept apart here.

Tests used:
[1] = test system: T-tropic HIV; settings: patients dual tropic or with only T-tropic virus; cited from earlier work
[2] = test system: HIV-1 gp160 (HXB2 strain) mediated cell/cell fusion; assay: Cell/cell fusion assay (HOS hCXCR4/hCCR5/hCD4/pHIV-LTR-luciferase cells with HEK-293 cells expressing HIV-1 tat, rev, gp160), luciferase readout; format: cell-based; settings: Homo sapiens, HEK293, 24 h, read-out: Fusion assay (pIC50) (converted)
Text: The complete coding sequences of HIV-1 tat (GenBank Accession No. X07861) and rev (GenBank Accession No. M34378) were cloned into pcDNA3.1 expression vectors containing G418 and hygromycin resistance genes, respectively. The complete coding sequence of the HIV-1 (HXB2 strain) gp160 envelope gene (nucleotide bases 6225-8795 of GenBank Accession No. K03455) was cloned into plasmid pCRII-TOPO. The three HIV genes were additionally inserted into the baculovirus shuttle vector, pFastBacMam1, under the transcriptional control of the CMV promoter. A construction of the pHIV-1 LTR containing mutated NFkB sequences linked to the luciferase reporter gene was prepared by digesting pcDNA3.1, containing the G418 resistance gene, with Nru I and Bam HI to remove the CMV promoter. LTR-luc was then cloned into the Nru I/Bam HI sites of the plasmid vector. Plasmid preparations were performed after the plasmids were amplified in Escherichia coli strain DH5-alpha. The fidelity of the inserted sequences was confirmed by double-strand nucleotide sequencing using an ABI Prism Model 377 automated sequencer.
Recombinant BacMam baculoviruses were constructed from pFastBacMam shuttle plasmids by using the bacterial cell-based Bac-to-Bac system. Viruses were propagated in Sf9 (Spodoptera frugiperda) cells cultured in Hink's TNM-FH Insect media supplemented with 10% (v/v) fetal bovine serum and 0.1% (v/v) pluronic F-68 according to established protocols.
Human osteosarcoma (HOS) cells that naturally express human CXCR4 were transfected with human CCR5, human CD4 and the pHIV-LTR-luciferase plasmid using FuGENE 6 transfection reagent. Single cells were isolated and grown under selection condition in order to generate a stable HOS (hCXCR4/hCCR5/hCD4/pHIV-LTR-luciferase) clonal cell line. The cells were maintained in Dulbeccos modified Eagles media supplemented with 10% fetal calf serum (FCS), G418 (400 ug/ml), puromycin (1 ug/ml), mycophenolic acid (40 ug/ml), xanthine (250 ug/ml) and hypoxanthine (13.5 ug/ml) to maintain a selection pressure for cells expressing the LTR-luciferase, hCCR5 and hCD4, respectively. Human embryonic kidney (HEK-293) cells stably transfected to express the human macrophage scavenging receptor (Class A, type 1; GenBank Accession No. D90187), were maintained in DMEM/F-12 media (1:1) supplemented with 10% FCS and 1.5 ug/ml puromycin. The expression of this receptor by the HEK-293 cells enhances their ability to stick to tissue culture treated plasticware.
HEK-293 cells were harvested using enzyme-free cell dissociation buffer. The cells were resuspended in DMEM/F-12 media supplemented with 10% FCS and 1.5 ug/ml and counted. Tranductions were performed by direct addition of BacMam baculovirus containing insect cell media to cells. The cells were simultaneously transduced with BacMam baculovirus expressing HIV-1 tat, HIV-1 rev and HIV-1 gp160 (from the HXB2 HIV strain). Routinely an MOI of 10 of each virus was added to the media containing the cells. 2 mM butyric acid was also added to the cells at this stage to increase protein expression in transduced cells. The cells were subsequently mixed and seeded into a flask at 30 million cells per T225. The cells were incubated at 37° C., 5% CO2, 95% humidity for 24 h to allow for protein expression.
HEK and HOS cells were harvested in DMEM/F-12 media containing 2% FCS and DMEM media containing 2% FCS, respectively, with no selection agents added. Compounds were plated as 1 ul spots in 100% DMSO on a 96-well CulturPlate plates. HOS cells (50 ul) were added first to the wells, followed immediately by the HEK cells (50 ul). The final concentration of each cell type was 20,000 cells per well. Following these additions, the cells were returned to a tissue culture incubator (37° C.; 5% CO2/95% air) for an additional 24 h.
Following the 24 h incubation, total cellular luciferase activity was measured using the LucLite Plus assay kit (Packard, Meridien, Conn.). […]

[3] = target: T1, CXCR4 receptor (Homo sapiens, UniProt P61073); assay: Functional FLIPR assay (block of SDF-1 alpha induced [Ca2+]i change); format: cell-based; settings: HEK-293 cells, human CXCR4 BacMam and Gqi5 BacMam, read-out: Functional assay (pIC50) (converted)
T1 construct: expressed in transfected cells; host or cells: HEK-293 cells (stably expressing human macrophage scavenger receptor) transduced with human CXCR4 BacMam and Gqi5 BacMam
Procedure: Human embryonic kidney (HEK-293) cells were maintained and harvested as described above. Cells were plated in 96-well, black clear bottom, poly-lysine coated plates at a concentration of 40,000 cells per well in a final volume of 100 ul containing human CXCR4BacMam (MOI=25) and Gqi5 BacMam (MOI=12.5). The cells were incubated at 37° C., 5% CO2, 95% humidity for 24 h to allow for protein expression.
After the required incubation time the cells were washed once with 50 ul of fresh serum-free DMEM/F12 media containing probenicid. 50 ul of dye solution was then added to the cells (Calcium Plus Assay Kit Dye; Molecular Devices) was dissolved in 200 ml of the above probenicid/BSA containing media and incubated for 1 h. Cell plates were transferred to a Fluorometric Imaging Plate Reader (FLIPR). Upon addition the effect of the compounds on the change in [Ca^2+]i was examined to determine if the compounds were agonists or antagonists (ability to block SDF-1 alpha activity) at the CXCR4 receptor. IC50 values are determined and pKb values are calculated using the Leff and Dougall equation: KB═IC50/((2+([agonist]/EC50̂b)̂1/b−1) Where IC50 is that defined by the antagonist concentration-response curve [agonist)] is the EC80 concentration of agonist used EC50 is that defined by the agonist concentration-response curve b is the slope of the agonist concentration-response curve.

[4] = test system: HIV-1 IIIB; assay: HOS HIV-1 infectivity assay; format: cell-based
How it was run: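 Luminescence served as read-out: Steady-Glo luciferase for infected wells, CellTiter-Glo for virus-free wells assessing cytotoxicity. Reporter HOS cells (hCXCR4/hCCR5/hCD4, LTR-luciferase) were preincubated with compound for 1 h, infected with PBL-propagated virus, and cultured 96 h at 37 °C.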

[5] = Compound cytotoxicity in HOS cells in the absence of virus (CellTiter-Glo); format: cell-based; settings: human, no virus, read-out: Cytotox (pIC50) (converted)
Procedure: Compounds were profiled against two HIV-1 viruses, the M-tropic (CCR5 utilizing) Ba-L strain and the T-tropic (CXCR4 utilizing) IIIB strain. Both viruses were propagated in human peripheral blood lymphocytes. Compounds were tested for there ability to block infection of the HOS cell line (expressing hCXCR4/hCCR5/hCD4/pHIV-LTR-luciferase) by either HIV-1 Ba-L or HIV-1 IIIB. Compound cytotoxicity was also examined in the absence of virus addition.
HOS cells (expressing hCXCR4/hCCR5/hCD4/pHIV-LTR-luciferase) were harvested and diluted in Dulbeccos modified Eagles media supplemented with 2% FCS and non-essential amino acid to a concentration of 60,000 cells/ml. The cells were plated into 96-well plates (100 ul per well) and the plates were placed in a tissue culture incubator (37° C.; 5% CO2/95% air) for a period of 24 h.
Subsequently, 50 ul of the desired drug solution (4 times the final concentration) was added to each well and the plates were returned to the tissue culture incubator (37° C.; 5% CO2/95% air) for 1 h. Following this incubation 50 ul of diluted virus was added to each well (approximately 2 million RLU per well of virus). The plates were returned to the tissue culture incubator (37° C.; 5% CO2/95% air) and were incubated for a further 96 h.
Following this incubation the endpoint for the virally infected cultures was quantified following addition of Steady-Glo Luciferase assay system reagent (Promega, Madison, Wis.). Cell viability or non-infected cultures was measured using a CellTiter-Glo luminescent cell viability assay system (Promega, Madison, Wis.). All luminescent readouts are performed on a Topcount luminescence detector (Packard, Meridien, Conn.).

T1 sequence (P61073 whole entry): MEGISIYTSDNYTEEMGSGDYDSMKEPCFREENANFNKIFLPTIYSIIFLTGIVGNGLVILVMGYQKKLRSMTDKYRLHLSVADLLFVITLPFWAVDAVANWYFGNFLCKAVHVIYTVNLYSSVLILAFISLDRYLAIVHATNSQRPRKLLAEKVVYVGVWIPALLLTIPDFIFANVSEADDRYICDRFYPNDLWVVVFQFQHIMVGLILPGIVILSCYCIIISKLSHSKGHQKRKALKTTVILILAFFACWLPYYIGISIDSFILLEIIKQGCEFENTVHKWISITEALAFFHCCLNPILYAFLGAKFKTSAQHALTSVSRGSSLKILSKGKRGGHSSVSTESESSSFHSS

SMILES | T-tropic HIV viral load [1] | IC50 [2] | IC50 [3] | IC50 ([4]; Human immunodeficiency virus 1, IIIB, as determined by the infectivity assay, strain not stated in Table 2, read-out: Activity Level) | IC50 ([4]; Human immunodeficiency virus 1, T-tropic (CXCR4 utilizing) IIIB strain, HOS cells, 96 h, read-out: HOS (3B)) | IC50 at 96 h [5]
c1cc(CN2CCCNCCNCCCNCC2)ccc1CN1CCCNCCNCCCNCC1 [AMD-3100] | significantly reduce T-tropic HIV viral load |  |  |  |  | 
CN1CCCCC1CCn1c(CN(C)C2CCCc3cccnc32)nc2ccccc21 (stereo not drawn) [Example 23e, N-Methyl-N-({1-[2-(1-methyl-2-piperidinyl)ethyl]-1H-benzimidazol-2-yl}methyl)-5,6,7,8-tetrahydro-8-quinolinamine] |  | 38 nM | 17.4 nM | < 100 nM | 33 nM | > 100000 nM
